Reference: the OligoGym collection
HELM strings list units from the 5' end as sugar, base in round brackets, then linkage (d deoxyribose, r ribose, m 2'-O-methyl, p phosphodiester). Strings are as the collection lists them; they lack the last nucleoside at the 3' end of the tested compound. [moe] = 2'-O-(2-methoxyethyl) (MOE); [sp] = phosphorothioate linkage; [m5C] = 5-methylcytosine

Target: ATXN2
Test: mouse, dose not given
Conditions: ASO

“RNA1{[moe]([m5C])[sp].[moe]([m5C])p.[moe]([m5C])p.[moe](A)p.[moe](A)p.d(A)[sp].d(G)[sp].d(G)[sp].d(G)[sp].d(T)[sp].d(T)[sp].d(A)[sp].d(A)[sp].d(T)[sp].d(T)[sp].[moe](A)p.[moe](G)p.[moe](G)[sp].[moe](A)}$$$$ (last 3' nucleoside missing)” gave a 3 h FOB score of 1 score 0-7.
